{
  "source": "patent US12509460B2",
  "about": "(Skyhawk Therapeutics, Inc., priority 2019, dated 2025)",
  "key": {"[1]": {"tested_on": "SMN protein in spinal muscular atrophy (SMA) patient fibroblasts (GM03813, Coriell)", "experiment": "SMN protein assay, Mesoscale Discovery (MSD)", "format": "cell-based, human", "settings": "SMA patient fibroblasts GM03813, 48 hours, MSD; for EC50: read-out: SMN2 protein EC50", "in_short": "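SMA patient fibroblasts (GM03813) seeded at 7000 cells/well and exposed to compound at 2.5 μM to 0.6 nM for 48 hours. Lysates assayed for SMN by MSD immunoassay, with absolute SMN amount calculated from a per-plate SMN standard curve (1 μg/ml to 19.5 pg/ml).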"}, "[2]": {"experiment": "Quantitative splicing assay (HTT), qPCR", "format": "cell-based, human", "settings": "Homo sapiens, GM04724, 24 h, GM04724 lymphoblasts, qPCR, read-out: HTT Splicing: E49-50 EC50", "experimental": "Example A9: Quantitative Splicing Assay (HTT)\nGM04724 (CAG 70/20) Huntington's disease patient lymphoblasts (Coriell) are plated in 96-well v-bottom plates at 50,000 cells/well. Immediately after plating, cells are dosed with compound for 24 h at concentrations ranging from 2.5 uM to 0.15 nM (0.1% DMSO). Treated cells are lysed and cDNA synthesized using the Fast Advanced Cells-to-Ct kit (Thermofisher A35378) according to the manufacturer's instructions. 2 uL of each cDNA are used in qPCR reactions to confirm the compound-induced inclusion of a cryptic exon within intron 49 of the Huntingtin (HTT) transcripts. The qPCR reactions are prepared in 384-well plates in 10 uL volume, using TagMan™ Fast Advanced Master Mix [ThermoFisher, 4444965] with primers and probes shown in the table below. Reactions are run in a Quant studio 6 qPCR instrument with default settings."}, "[3]": {"tested_on": "MDR1-MDCK cell monolayers", "experiment": "Blood-brain-barrier (BBB) penetration potential via MDCK-MDR1 permeability assay"}, "MDR1 (P-gp)": {"tested_on": "MDR1 (P-gp)", "experiment": "Blood-brain-barrier (BBB) penetration potential via MDCK-MDR1 permeability assay", "settings": "dog; for Papp A→B at 120 min, 5 μM: MDCK-MDR1, pH 7.4, MDCK-MDR1: Papp A-B, A-B direction; for Papp B→A at 120 min, 5 μM: MDCK-MDR1, pH 7.4, MDCK-MDR1: Papp B-A, B-A direction"}, "MDR1": {"tested_on": "MDR1", "experiment": "Blood-brain-barrier (BBB) penetration potential via MDCK-MDR1 permeability assay", "settings": "dog, MDCK-MDR1, pH 7.4, MDCK-MDR1: Efflux, efflux ratio"}, "[4]": {"tested_on": "mHTT protein in GM04724 (CAG 70/20) Huntington's disease patient lymphoblast cells", "experiment": "mHTT protein assay, 2B7-MW1 assay via Mesoscale Discovery (MSD)", "format": "cell-based, human", "settings": "GM04724 Huntington's disease patient lymphoblasts", "in_short": "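Patient lymphoblasts treated 48 h with compound from 10 μM to 0.6 nM. mHTT quantified by MSD 2B7-MW1 immunoassay, whose signal depends on polyQ expansion and HTT size. Viability measured on a replicate plate by CellTiter Glo.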"}},
  "note": "Several values for one entry are separate records, joined by “and”; a condition that tells them apart may be missing. Identical values can stand only once.",
  "data": [
    {"smiles": "CN(c1ccc(-c2cc3c(=O)[nH]ccc3s2)nn1)[C@@H]1C[C@H]2CC[C@H](N2)[C@@H]1F", "note": "[Compound 6A, 2-(6-(((1S,2S,3R,5R)-2-fluoro-8-azabicyclo[3.2.1]octan-3-yl)(methyl)amino)pyridazin-3-yl)thieno[3,2-c]pyridin-4(5H)-one]", "values": [
      {"measurement": "SMN2 protein EC50", "setting": "[1]", "result": "E (501 ≤ E ≤ 10.000)"},
      {"measurement": "EC50", "setting": "[1]", "result": "51 to 100", "unit": "nM"},
      {"measurement": "EC50", "setting": "[2]", "result": "10 to 501", "unit": "nM"},
      {"measurement": "MDCK-MDR1: % Recov A-B", "setting": "[3]; A-B direction", "result": "90% and 95%"},
      {"measurement": "MDCK-MDR1: Papp A-B", "setting": "[3]; A-B direction", "result": "0.06 10^−6, cm/s"},
      {"measurement": "MDCK-MDR1: % Recov B-A", "setting": "[3]; B-A direction", "result": "91% and 82%"},
      {"measurement": "MDCK-MDR1: Papp B-A", "setting": "[3]; B-A direction", "result": "7.34 10^−6, cm/s"},
      {"measurement": "MDCK-MDR1: Efflux", "setting": "[3]; efflux ratio", "result": 121},
      {"measurement": "Papp A→B at 120 min, 5 μM", "setting": "MDR1 (P-gp)", "result": 0.09, "unit": "×10⁻⁶ cm/s"},
      {"measurement": "Papp B→A at 120 min, 5 μM", "setting": "MDR1 (P-gp)", "result": 6.69, "unit": "×10⁻⁶ cm/s"},
      {"measurement": "efflux ratio at 120 min, 5 μM", "setting": "MDR1", "result": 74}
    ]},
    {"smiles": "CN(c1ccc(-c2ccc(-c3nnco3)cc2O)nn1)[C@@H]1C[C@H]2CC[C@H](N2)[C@@H]1F", "note": "[Compound 44A, 2-(6-(((1S,2S,3R,5R)-2-fluoro-8-azabicyclo[3.2.1]octan-3-yl)(methyl)amino)pyridazin-3-yl)-5-(1,3,4-oxadiazol-2-yl)phenol]", "values": [
      {"measurement": "EC50", "setting": "[1]", "result": "101 to 500", "unit": "nM"},
      {"measurement": "EC50", "setting": "[2]", "result": "16 to 50", "unit": "nM"},
      {"measurement": "MDCK-MDR1: % Recov A-B", "setting": "[3]; A-B direction", "result": 87, "unit": "%"},
      {"measurement": "MDCK-MDR1: % Recov B-A", "setting": "[3]; B-A direction", "result": 86, "unit": "%"},
      {"measurement": "Papp A→B at 120 min, 5 μM", "setting": "MDR1 (P-gp)", "result": 8.12, "unit": "×10⁻⁶ cm/s"},
      {"measurement": "Papp B→A at 120 min, 5 μM", "setting": "MDR1 (P-gp)", "result": 50.9, "unit": "×10⁻⁶ cm/s"},
      {"measurement": "efflux ratio at 120 min, 5 μM", "setting": "MDR1", "result": 6},
      {"measurement": "EC50", "setting": "[4]", "result": "0.01 to 15", "unit": "nM"}
    ]},
    {"smiles": "CN(c1ccc(-c2cc3ncn(C)c(=O)c3cc2O)nn1)[C@@H]1C[C@H]2CC[C@H](N2)[C@@H]1F", "note": "[Compound 51A, 7-(6-(((1S,2S,3R,5R)-2-fluoro-8-azabicyclo[3.2.1]octan-3-yl)(methyl)amino)pyridazin-3-yl)-6-hydroxy-3-methylquinazolin-4(3H)-one]", "values": [
      {"measurement": "SMN2 protein EC50", "setting": "[1]", "result": "E (501 ≤ E ≤ 10.000)"},
      {"measurement": "EC50", "setting": "[2]", "result": "0.01 to 15", "unit": "nM"},
      {"measurement": "MDCK-MDR1: % Recov A-B", "setting": "[3]; A-B direction", "result": 94, "unit": "%"},
      {"measurement": "MDCK-MDR1: % Recov B-A", "setting": "[3]; B-A direction", "result": 86, "unit": "%"},
      {"measurement": "Papp A→B at 120 min, 5 μM", "setting": "MDR1 (P-gp)", "result": 0.81, "unit": "×10⁻⁶ cm/s"},
      {"measurement": "Papp B→A at 120 min, 5 μM", "setting": "MDR1 (P-gp)", "result": 38, "unit": "×10⁻⁶ cm/s"},
      {"measurement": "efflux ratio at 120 min, 5 μM", "setting": "MDR1", "result": 47},
      {"measurement": "EC50", "setting": "[4]", "result": "0.01 to 15", "unit": "nM"}
    ]},
    {"smiles": "CN(c1ccc(-c2ccc(-c3cnn(C(F)F)c3)cc2O)nn1)[C@H]1C[C@@H]2CC[C@@H](N2)[C@H]1F", "note": "[Compound 20B, 5-(1-(difluoromethyl)-1H-pyrazol-4-yl)-2-(6-(((1R,2R,3S,5S)-2-fluoro-8-azabicyclo[3.2.1]octan-3-yl)(methyl)amino)pyridazin-3-yl)phenol]", "values": [
      {"measurement": "SMN2 protein EC50", "setting": "[1]", "result": "E (501 ≤ E ≤ 10.000)"},
      {"measurement": "EC50", "setting": "[2]", "result": "0.01 to 15", "unit": "nM"},
      {"measurement": "MDCK-MDR1: % Recov A-B", "setting": "[3]; A-B direction", "result": 45, "unit": "%"},
      {"measurement": "MDCK-MDR1: % Recov B-A", "setting": "[3]; B-A direction", "result": 65, "unit": "%"},
      {"measurement": "Papp A→B at 120 min, 5 μM", "setting": "MDR1 (P-gp)", "result": 3.59, "unit": "×10⁻⁶ cm/s"},
      {"measurement": "Papp B→A at 120 min, 5 μM", "setting": "MDR1 (P-gp)", "result": 39.2, "unit": "×10⁻⁶ cm/s"},
      {"measurement": "efflux ratio at 120 min, 5 μM", "setting": "MDR1", "result": 11},
      {"measurement": "EC50", "setting": "[4]", "result": "0.01 to 15", "unit": "nM"}
    ]},
    {"smiles": "CN(c1ccc(-c2cc(C#N)c(F)cc2O)nn1)[C@H]1C[C@@H]2CC[C@@H](N2)[C@H]1F", "note": "[Compound 72B, 2-fluoro-5-(6-(((1R,2R,3S,5S)-2-fluoro-8-azabicyclo[3.2.1]octan-3-yl)(methyl)amino)pyridazin-3-yl)-4-hydroxybenzonitrile]", "values": [
      {"measurement": "EC50", "setting": "[1]", "result": "51 to 100", "unit": "nM"},
      {"measurement": "EC50", "setting": "[2]", "result": "101 to 500", "unit": "nM"},
      {"measurement": "MDCK-MDR1: % Recov A-B", "setting": "[3]; A-B direction", "result": 78, "unit": "%"},
      {"measurement": "MDCK-MDR1: % Recov B-A", "setting": "[3]; B-A direction", "result": 74, "unit": "%"},
      {"measurement": "Papp A→B at 120 min, 5 μM", "setting": "MDR1 (P-gp)", "result": 10.9, "unit": "×10⁻⁶ cm/s"},
      {"measurement": "Papp B→A at 120 min, 5 μM", "setting": "MDR1 (P-gp)", "result": 36.4, "unit": "×10⁻⁶ cm/s"},
      {"measurement": "efflux ratio at 120 min, 5 μM", "setting": "MDR1", "result": 3},
      {"measurement": "EC50", "setting": "[4]", "result": "101 to 500", "unit": "nM"}
    ]},
    {"smiles": "CN(c1ccc(-c2ccc(-c3cnn(C(F)F)c3)cc2O)nn1)[C@@H]1C[C@H]2CC[C@H](N2)[C@@H]1F", "note": "[Compound 20A, 5-(1-(difluoromethyl)-1H-pyrazol-4-yl)-2-(6-(((1S,2S,3R,5R)-2-fluoro-8-azabicyclo[3.2.1]octan-3-yl)(methyl)amino)pyridazin-3-yl)phenol]", "values": [
      {"measurement": "EC50", "setting": "[1]", "result": "16 to 50", "unit": "nM"},
      {"measurement": "EC50", "setting": "[2]", "result": "16 to 50", "unit": "nM"},
      {"measurement": "MDCK-MDR1: % Recov A-B", "setting": "[3]; A-B direction", "result": 47, "unit": "%"},
      {"measurement": "MDCK-MDR1: % Recov B-A", "setting": "[3]; B-A direction", "result": 71, "unit": "%"},
      {"measurement": "Papp A→B at 120 min, 5 μM", "setting": "MDR1 (P-gp)", "result": 4.68, "unit": "×10⁻⁶ cm/s"},
      {"measurement": "Papp B→A at 120 min, 5 μM", "setting": "MDR1 (P-gp)", "result": 39.9, "unit": "×10⁻⁶ cm/s"},
      {"measurement": "efflux ratio at 120 min, 5 μM", "setting": "MDR1", "result": 9},
      {"measurement": "EC50", "setting": "[4]", "result": "16 to 50", "unit": "nM"}
    ]},
    {"smiles": "CN(c1ccc(-c2cc3ccncc3s2)nn1)[C@@H]1C[C@H]2CC[C@H](N2)[C@@H]1F", "note": "[Compound 65A, (1S,2S,3R,5R)-2-fluoro-N-methyl-N-(6-(thieno[2,3-c]pyridin-2-yl)pyridazin-3-yl)-8-azabicyclo[3.2.1]octan-3-amine]", "values": [
      {"measurement": "EC50", "setting": "[1]", "result": "51 to 100", "unit": "nM"},
      {"measurement": "EC50", "setting": "[2]", "result": "10 to 501", "unit": "nM"},
      {"measurement": "MDCK-MDR1: % Recov A-B", "setting": "[3]; A-B direction", "result": 94, "unit": "%"},
      {"measurement": "MDCK-MDR1: % Recov B-A", "setting": "[3]; B-A direction", "result": 93, "unit": "%"},
      {"measurement": "Papp A→B at 120 min, 5 μM", "setting": "MDR1 (P-gp)", "result": 5.82, "unit": "×10⁻⁶ cm/s"},
      {"measurement": "Papp B→A at 120 min, 5 μM", "setting": "MDR1 (P-gp)", "result": 50.5, "unit": "×10⁻⁶ cm/s"},
      {"measurement": "efflux ratio at 120 min, 5 μM", "setting": "MDR1", "result": 9},
      {"measurement": "EC50", "setting": "[4]", "result": "101 to 500", "unit": "nM"}
    ]}
  ]
}
